Laboratory results taken from US20120035256A1, “Use of bipolar trans carotenoids as a pretreatment and in the treatment of peripheral vascular disease” (Diffusion Pharmaceuticals LLC, priority 2008, published 2012).

Legend:
[1] = system: atherosclerotic plaque formation; conditions: rabbits; Gainer and Chisolm, Atherosclerosis 19: 135-138, 1974; cited from earlier work
[2] = system: focal cerebral ischemia (three vessel occlusion: both CCA and MCA); assay: Three vessel occlusion focal cerebral ischemic model; format: in vivo, rat
Excerpt: Preconditioning or pretreating a patient (mammal including human) with a bipolar trans carotenoid is advisable for the following patients: • a patient at risk of an ischemic event; • a patient at risk of forming an embolism or blood clot in the blood vessels, the brain, the heart, or the lungs. The embolism can be fat globules (a fat embolism), air bubbles (an air embolism), talc embolism (often following drug abuse), septic emboli (containing pus and bacteria), atherosclerotic emboli, or amniotic fluid; • a patient at risk of stroke including a patient diagnosed with a blocked carotid artery or having suffered a transient ischemic attack (TIA). In Example 2, TSC was administered intravenously to rats 24 hours before the ischemic injury to the brain occurred. Sufficient time passed between the administration of TSC and the subsequent event so that the TSC would have been cleared from the system. The TSC was dissolved in water, and given over a period of an hour in the following manner. First a 0.1 ml bolus injection was given, then a slow infusion (0.6 ml given over 60 minutes) was given, and finally another 0.1 ml bolus was given. […] The occlusions were removed after 2 hours, and the infarct volume (core plus penumbra) was measured 24 hours later. […]
Trans-sodium crocetinate (0.091 mg/kg total dosage) or vehicle was administered intravenously as follows 1) 0.1 ml injection 2) continuous infusion of TSC at a rate of 0.01 ml/min for the next 60 minutes, and 3) a final 0.1 ml injection of TSC 30 minutes after the cessation of continuous infusion. […] Infarction volumes were measured 24 hours after the ischemic event.
The effects of TSC on focal ischemic injury were examined using adult male Sprague-Dawley rats, each of which weighed between 330 and 370 g. […] Rectal temperature was monitored continuously and maintained at 37° C. with a heating lamp. […]
Focal ischemic was performed by clipping (Sundt AVM microclip No 1, Codman & Shurtleff, Inc., Raynham, Mass.) the MCA at a point distal to the origin of the lenticulostriate arteries. […] After 24 hours, infarct volume was calculated. […]

[3] = Rat transcutaneous oxygen (TCOM) study with 100% oxygen; format: in vivo; conditions: male Sprague-Dawley rats breathing 100% oxygen, TSC injected into femoral vein, 45 minutes recording, FIG. 1
Method: For the rat TCOM studies, male Sprague-Dawley rats were used which weighed between 350 and 400 grams each. TCOM electrodes are attached to humans on the chest, on the leg, or on the top of the foot. Using a TCOM apparatus (Radiometer), the electrodes were attached to the shaven skin in the areas of the chest, the abdomen, and the thigh of the rats. Pure oxygen was then administered to the rats. The most reproducible results came from the electrode attached near the rat's abdomen, on the left or right side.
The rats were anesthetized (to quiet them) using IP injections of 80 mg/kg ketamine and 10 mg/kg xylazine.
After the animals were asleep, the abdomen area of the rat was shaved and the TCOM electrode collar was attached to that area. Using Dow Corning high vacuum silicone grease between the electrode collar and the skin was helpful in maintaining a good seal on the rat's skin.
After attaching the TCOM probe, the transcutaneous oxygen tension was then monitored for 30 minutes while the rat breathed room air. The rat was then switched to 100% oxygen and TSC was injected into the femoral vein. The TCOM readings were then recorded for an additional 45 minutes.

CC(/C=C/C=C(\C)C(=O)O)=C\C=C\C=C(C)\C=C\C=C(/C)C(=O)O [Crocetin]
Atherosclerotic plaque formation over time [1]: reduction in atherosclerotic plaque formation

CC(/C=C/C=C(\C)C(=O)[O-])=C\C=C\C=C(C)\C=C\C=C(/C)C(=O)[O-].[Na+].[Na+] [TSC, trans sodium crocetinate]
Infarct volume (actual, adjusted for swelling) ([2]; 3VO+TSC group, TSC 0.091 mg/kg total i.v. 24 hours before 120 min ischemia, measured 24 hours after the ischemic event, mean±SEM, p<0.01 vs 3VO-only or 3VO+Vehicle): 57.7±16.2 mm3
Reduction in infarct volume, preischemic treatment ([2]; TSC 0.091 mg/kg i.v. 24 hours before ischemic injury, occlusions removed after 2 hours, infarct volume measured 24 hours later): 65%
Reduction in infarct volume, intraischemic treatment ([2]; intraischemic treatment with TSC done previously in this model): 58%
TCOM reading (transcutaneous oxygen tension) [3]: additional increase in the TCOM reading
